Experimental data published in US20120149710A1, “SORTASE A INHIBITORS” (priority 2009, published 2012).
Values after ≈ are worked out from the molar mass of the structure shown. “Also recorded” adds a separate entry of the source.

Assays:
[1] = biological target: B. anthracis sortase A enzyme (Bacillus anthracis, UniProt P0DPQ5); assay: cell-based; conditions: for EC50 (estimated from a single concentration): read-out: EC50 estimated from a single concentration
SrtA = SrtA (Staphylococcus aureus, UniProt Q2FV99); assay type: biochemical; conditions: inhibitor 10-fold above IC50, then rapid dilution
S. aureus strain Newman = assay: MIC by microtiter broth dilution method; assay type: cell-based; conditions: Staphylococcus aureus, read-out: MIC preventing S. aureus growth
S. aureus = S. aureus culture growth in the presence of 500 μM inhibitor; assay type: cell-based, Staphylococcus aureus; conditions: vs 2.5% DMSO control
S. aureus SrtA = S. aureus SrtA (Staphylococcus aureus, UniProt Q2FV99); assay: FRET assay of SrtA-catalyzed hydrolysis of Abz-LPETG-Dap(Dnp); IC50 / Ki app; assay type: biochemical; conditions: for IC50: purified enzyme, FRET, read-out: IC50 for inhibition of S. aureus SrtA; for Ki: read-out: Ki app (apparent dissociation constant of enzyme-inhibitor complex, Morrison's equation), S. aureus SrtA
[2] = biological target: Bacillus anthracis sortase enzyme (BaSrtA) (Bacillus anthracis, UniProt P0DPQ5); assay: biochemical
[3] = system: SrtA activity in whole cells, S. aureus strain RN4220; assay: Cell adhesion assay: whole cell adhesion to IgG coated plates (SrtA activity in whole cells); assay type: cell-based, Staphylococcus aureus; conditions: IgG coated microtiter plates

Sequence of S. aureus SrtA (Q2FV99 60-206): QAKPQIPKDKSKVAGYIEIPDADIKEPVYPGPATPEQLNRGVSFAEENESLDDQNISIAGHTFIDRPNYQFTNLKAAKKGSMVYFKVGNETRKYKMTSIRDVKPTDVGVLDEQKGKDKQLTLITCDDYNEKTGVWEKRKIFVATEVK
Sequence of B. anthracis sortase A enzyme (P0DPQ5 whole entry, looked up): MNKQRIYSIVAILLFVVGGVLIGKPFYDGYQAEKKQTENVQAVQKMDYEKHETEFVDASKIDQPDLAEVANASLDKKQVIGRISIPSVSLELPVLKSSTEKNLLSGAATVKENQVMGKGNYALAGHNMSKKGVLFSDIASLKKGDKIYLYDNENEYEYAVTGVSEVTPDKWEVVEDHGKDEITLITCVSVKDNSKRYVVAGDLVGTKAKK
Sequence of Bacillus anthracis sortase enzyme (BaSrtA) (P0DPQ5 whole entry, looked up): as above
Sequence of SrtA (Q2FV99 60-206): as the sequence (Q2FV99 60-206) above

| Structure (SMILES) | EC50 (estimated from a single concentration) [1] [nM] | Effect on S. aureus growth in cell culture, in words (S. aureus) | IC50 (S. aureus SrtA) [nM] | Ki (S. aureus SrtA) [nM] | Ki [2] [nM] | also measured |
| --- | --- | --- | --- | --- | --- | --- |
| CCOc1c(SSc2ccccn2)cnn(-c2cccc(F)c2)c1=O [2-59, 4-Ethoxy-2-(3-fluorophenyl)-5-(pyridin-2-yldisulfanyl)pyridazin-3(2H)-one] | > 8000 |  |  |  |  |  |
| Cc1ccc(N2C(=O)/C(=C/c3cc([N+](=O)[O-])cc(Br)c3O)SC2=S)c(C)c1 [compound 1] |  | toxic |  |  |  | Enzyme activity recovered immediately after dilution (SrtA): 84%; MIC (S. aureus strain Newman): ~10 µM (≈ 4.65 µg/mL) |
| CCSc1c(S)cnn(-c2ccccc2)c1=O [compound 2-9] |  | do not significantly inhibit S. aureus growth; also recorded: not bactericidal; also recorded: do not impair microbial growth in cell culture | 1400 | 1400 | ~300 | Inhibition of S. aureus SrtA, potency in words (S. aureus SrtA): low micromolar |
| CCOc1c(SSc2ccccn2)cnn(-c2ccccc2)c1=O [compound 2-50, 4-Ethoxy-5-(2-pyridyldithio)-2-phenylpyridazin-3-one] | > 8000 |  |  | ~30 |  | Concentration giving near complete inhibition of sortase activity [1]: about 34 μM; EC50 [1]: ~15000 nM |
| CC1=NN(c2ccccc2)C(=S)/C1=C/Nc1c(Br)cc(Br)cc1Br [compound 3-12] | > 28000 | do not substantially affect bacterial growth; also recorded: do not impair microbial growth in cell culture | 300 | 300 | 1700 | Improvement of potency relative to lead 3 (S. aureus SrtA; 4-NO2 changed to 2,4,6-Br3): about 15 fold |
| Cc1oc(CN)nc1C(=O)c1nccs1 [compound 4] |  |  | 7200 |  |  | Effect on SrtA-dependent adherence / protein display in whole cells [3]: potent effects; also recorded: inhibits protein display by SrtA in vivo |
